Experimental data reported in patent US6503881B2 (priority 1996, dated 2003).
Like-named read-outs stand apart in the source and are kept apart here.

Experiments:
bacterial isolates = details: A. calcoaceticus 3
[1] = tested on: microorganisms with acquired resistance

Q: Which results are given for I L K K W P W W P W R R [MBI 11G7CN]?
A: Peptide MIC + Piperacillin (bacterial isolates): 2 µg/mL; Peptide MIC Alone (bacterial isolates): 4 µg/mL; Piperacillin MIC + Peptide (bacterial isolates): 4 µg/mL

Q: “G K P R P Y S P I P T S P R P I R Y [MBI 31]” was tested. Which Peptide MIC ([1]; S. aureus SA7796, pair Methicillin / MBI 31) did it give?
A: 16 µg/mL

Q: And the Peptide MIC ([1]; S. aureus SA7797, pair Methicillin / MBI 31)?
A: 16 µg/mL

Q: And the Peptide MIC ([1]; S. aureus SA7823, pair Methicillin / MBI 31)?
A: 0.5 µg/mL

Q: And the Peptide MIC ([1]; S. aureus SA7834, pair Methicillin / MBI 31)?
A: 32 µg/mL

Q: And the Peptide MIC ([1]; S. aureus SA7835, pair Methicillin / MBI 31)?
A: 16 µg/mL

Q: What about the Peptide MIC ([1]; S. haemolyticus SH8463, pair Erythromycin / MBI 31) of the same substance?
A: 0.5 µg/mL

Q: And the Peptide MIC ([1]; S. haemolyticus SH8472, pair Erythromycin / MBI 31)?
A: 0.5 µg/mL

Q: What about the Peptide MIC ([1]; S. haemolyticus SH8564, pair Erythromycin / MBI 31) of the same substance?
A: 0.5 µg/mL

Q: What about the Peptide MIC ([1]; S. haemolyticus SH8575, pair Erythromycin / MBI 31) of the same substance?
A: 0.5 µg/mL

Q: For L K K W P W W P W R R K [MBI 11D1CN], which MIC (bacteria; A. calcoaceticus AC001) is on record?
A: >128 µg/mL

Q: And the MIC (bacteria; E. cloacae ECL007)?
A: >128 µg/mL

Q: What about the MIC (bacteria; E. coli ECO002) of the same substance?
A: 16 µg/mL

Q: And the MIC (bacteria; E. faecalis EFS002)?
A: 32 µg/mL

Q: What about the MIC (bacteria; E. faecium EFM001) of the same substance?
A: 16 µg/mL

Q: And the MIC (bacteria; K. pneumoniae KP002)?
A: 64 µg/mL

Q: And the MIC (bacteria; P. aeruginosa PA003)?
A: >128 µg/mL

Q: And the MIC (bacteria; S. aureus SA004)?
A: 2 µg/mL

Q: What about the MIC (bacteria; S. epidermidis SE010) of the same substance?
A: 8 µg/mL

Q: And the MIC (bacteria; S. maltophilia SMA001)?
A: 64 µg/mL

Q: What about the MIC (bacteria; S. marcescens SMS003) of the same substance?
A: >128 µg/mL

Q: With I L K K W P W W W R K [MBI 11D15CN] as the substance, how does the MIC (bacteria; E. faecalis EFS002) read?
A: 32 µg/mL

Q: What about the MIC (bacteria; E. faecium EFM003) of the same substance?
A: 4 µg/mL

Q: What about the MIC (bacteria; S. aureus SA009) of the same substance?
A: 8 µg/mL

Q: For I L K K W P W W P W R R K [MBI 11A], which MIC (bacteria; A. calcoaceticus AC001) is on record?
A: >64 µg/mL

Q: What about the MIC (bacteria; E. cloacae ECL007) of the same substance?
A: >64 µg/mL

Q: What about the MIC (bacteria; E. coli ECO005) of the same substance?
A: >64 µg/mL

Q: What about the MIC (bacteria; E. faecalis EFS004) of the same substance?
A: 32 µg/mL

Q: What about the MIC (bacteria; K. pneumoniae KP001) of the same substance?
A: 64 µg/mL

Q: And the MIC (bacteria; P. aeruginosa PA024)?
A: >64 µg/mL

Q: What about the MIC (bacteria; S. aureus SA002) of the same substance?
A: 4 µg/mL

Q: What about the MIC (bacteria; S. maltophilia SMA002) of the same substance?
A: >64 µg/mL

Q: And the MIC (bacteria; S. marcescens SMS003)?
A: >64 µg/mL

Q: For “ILRWPWWPWRRKDMILKKAGS [MBI 11B18CN]”, which MIC (bacteria; A. calcoaceticus AC002) is on record?
A: 2 µg/mL

Q: And the MIC (bacteria; E. cloacae ECL007)?
A: >128 µg/mL

Q: What about the MIC (bacteria; E. coli ECO005) of the same substance?
A: 32 µg/mL

Q: What about the MIC (bacteria; E. faecalis EFS008) of the same substance?
A: 4 µg/mL

Q: What about the MIC (bacteria; K. pneumoniae KP001) of the same substance?
A: 32 µg/mL

Q: And the MIC (bacteria; P. aeruginosa PA004)?
A: >128 µg/mL

Q: What about the MIC (bacteria; S. aureus SA093) of the same substance?
A: 2 µg/mL

Q: What about the MIC (bacteria; S. epidermidis SE010) of the same substance?
A: 4 µg/mL

Q: And the MIC (bacteria; S. maltophilia SMA002)?
A: 64 µg/mL

Q: What about the MIC (bacteria; S. marcescens SMS003) of the same substance?
A: >128 µg/mL

Q: “ILKKWPWWPWRRMILKKAGS [MBI 11D5CN]” was tested. Which MIC (bacteria; A. calcoaceticus AC001) did it give?
A: >64 µg/mL

Q: What about the MIC (bacteria; E. cloacae ECL007) of the same substance?
A: >64 µg/mL

Q: And the MIC (bacteria; E. coli ECO003)?
A: 64 µg/mL

Q: And the MIC (bacteria; E. faecalis EFS002)?
A: 16 µg/mL

Q: What about the MIC (bacteria; E. faecium EFM003) of the same substance?
A: 1 µg/mL

Q: And the MIC (bacteria; K. pneumoniae KP001)?
A: >64 µg/mL

Q: And the MIC (bacteria; P. aeruginosa PA003)?
A: >64 µg/mL

Q: What about the MIC (bacteria; S. aureus SA005) of the same substance?
A: 8 µg/mL

Q: And the MIC (bacteria; S. maltophilia SMA001)?
A: 64 µg/mL

Q: What about the MIC (bacteria; S. marcescens SMS004) of the same substance?
A: >64 µg/mL

Q: How did the MIC (bacteria; A. calcoaceticus AC001) turn out when “I L K K W P W W P W R R K M [MBI 11D11H]” was run?
A: >64 µg/mL

Q: And the MIC (bacteria; E. cloacae ECL007)?
A: >64 µg/mL

Q: And the MIC (bacteria; E. coli ECO002)?
A: 32 µg/mL

Q: What about the MIC (bacteria; K. pneumoniae KP001) of the same substance?
A: >64 µg/mL

Q: And the MIC (bacteria; P. aeruginosa PA001)?
A: >64 µg/mL

Q: And the MIC (bacteria; S. aureus SA008)?
A: 4 µg/mL

Q: And the MIC (bacteria; S. maltophilia SMA002)?
A: >64 µg/mL

Q: What about the MIC (bacteria; S. marcescens SMS004) of the same substance?
A: >64 µg/mL

Q: With I L K K W P W W A W R R K [MBI 11C4CN] as the substance, how does the MIC (bacteria; A. calcoaceticus AC002) read?
A: 4 µg/mL

Q: And the MIC (bacteria; E. cloacae ECL007)?
A: >128 µg/mL

Q: And the MIC (bacteria; E. coli ECO005)?
A: 32 µg/mL

Q: What about the MIC (bacteria; E. faecalis EFS002) of the same substance?
A: 32 µg/mL

Q: And the MIC (bacteria; E. faecium EFM003)?
A: 2 µg/mL

Q: And the MIC (bacteria; K. pneumoniae KP001)?
A: >128 µg/mL

Q: What about the MIC (bacteria; P. aeruginosa PA005) of the same substance?
A: >128 µg/mL

Q: What about the MIC (bacteria; S. aureus SA009) of the same substance?
A: 4 µg/mL

Q: What about the MIC (bacteria; S. epidermidis SE002) of the same substance?
A: 4 µg/mL

Q: And the MIC (bacteria; S. maltophilia SMA002)?
A: 64 µg/mL

Q: What about the MIC (bacteria; S. marcescens SMS004) of the same substance?
A: >128 µg/mL

Q: Which MIC (bacteria; E. faecalis EFS004) does the source give for I L P W K W P W W P W R R [MBI 10A] here?
A: 16 µg/mL

Q: And the MIC (bacteria; E. faecium EFM003)?
A: 8 µg/mL

Q: And the MIC (bacteria; S. aureus SA010)?
A: 8 µg/mL
